According to EP0525960B1, “Use of rapamycin for the treatment of adult T-cell leukemia/lymphoma” (AMERICAN HOME PRODUCTS CORPORATION, priority 1991, dated 1993):

Experiments:
Type in all cases: cell-based
[1] = tested on: ten human HTLV-1 transformed T-cell lines; assay: Inhibition of ATL cell proliferation, summary over the panel of ten cell lines; conditions: in 4 of the cell lines at a concentration of 1 nM, read-out: reduction in proliferation
Experimental: (§1) The effect of rapamycin on ATL was established in an in vitro standard pharmacological test procedure using ten human HTLV-1 transformed T-cell lines cultured from ATL patients. These cell lines are presently the best models for ATL in humans. Cyclosporin A (CsA) was also evaluated for the purpose of comparison. The procedure used and results obtained are described below.
ATL cell lines were established according to known literature procedures. ATL5S, ATL3I, and ATL1K were established according to the method of Hoshino [Proc. Natl. Acad. Sci, 80: 6061(1983)]. The cell lines 31008, 31009, 31016 and AT(EGG) were established from peripheral blood of HTLV-1 infected individuals via co-culture with cord blood lymphocytes. The cell line MALN was isolated from lymphoid tumor tissue of an HTLV-1 infected ATL patient seen at Jackson Memorial/University of Miami Medical Center. [Harrington, W.J., Jr., J. Acq. Imm. Def. Dis., 4: 284 (1991)]. The primary cultures BL and GP were initiated from peripheral blood of ATL patients. […]
Cells were adjusted to a concentration of 1x10⁶ cells/mL in RPMI 1640 with 15% fetal bovine serum and were supplemented with 50 U/mL penicillin, 50 µg/mL streptomycin, and 2 mM glutamine. […] Drug concentrations evaluated ranged from 1µM to 100 fM. […] Thymidine incorporation was measured by liquid scintillation counting, and the results expressed in counts per minute (cpm). […]

ATEGG = assay: Inhibition of ATL cell proliferation (tritiated thymidine incorporation); conditions: Homo sapiens, 24 hours, read-out: PERCENT INHIBITION OF ATL CELL PROLIFERATION
Experimental: as §1
(§2) ATL cell lines were established according to known literature procedures. ATL5S, ATL3I, and ATL1K were established according to the method of Hoshino [Proc. Natl. Acad. Sci, 80: 6061(1983)]. The cell lines 31008, 31009, 31016 and AT(EGG) were established from peripheral blood of HTLV-1 infected individuals via co-culture with cord blood lymphocytes. The cell line MALN was isolated from lymphoid tumor tissue of an HTLV-1 infected ATL patient seen at Jackson Memorial/University of Miami Medical Center. [Harrington, W.J., Jr., J. Acq. Imm. Def. Dis., 4: 284 (1991)]. The primary cultures BL and GP were initiated from peripheral blood of ATL patients. The MALN, BL, and GP cell lines were initiated without co-cultivation.
(§3) Cells were adjusted to a concentration of 1x10⁶ cells/mL in RPMI 1640 with 15% fetal bovine serum and were supplemented with 50 U/mL penicillin, 50 µg/mL streptomycin, and 2 mM glutamine. […] Drug concentrations evaluated ranged from 1µM to 100 fM. Cultures were incubated at 37°C, 5% CO₂ for 24 hours followed by a 4 hr. pulse with 0.5 µCi of tritiated thymidine. Thymidine incorporation was measured by liquid scintillation counting, and the results expressed in counts per minute (cpm). The results obtained from the mean of four evaluations at each concentration were compared with control values to determine percent inhibition. The following formula was used to calculate the percent inhibition: Percent Inhibition =(cpm[no drug] - cpm[drug])/(cpm[no drug])x 100 [formula] The percent inhibition obtained with rapamycin is shown in the following table.

MALN = assay: as above; conditions: Homo sapiens, 24 hours, read-out: PERCENT INHIBITION OF ATL CELL PROLIFERATION
Experimental: as §1, §2, §3

31008 = assay: as above; conditions: Homo sapiens, 24 hours, read-out: PERCENT INHIBITION OF ATL CELL PROLIFERATION
Experimental: as §1, §2, §3

BL = assay: as above; conditions: Homo sapiens, 24 hours, read-out: PERCENT INHIBITION OF ATL CELL PROLIFERATION
Experimental: as §1, §2, §3

31016 = assay: as above; conditions: Homo sapiens, 24 hours, read-out: PERCENT INHIBITION OF ATL CELL PROLIFERATION
Experimental: as §1, §2, §3

## CO[C@H]1C[C@@H]2CC[C@@H](C)[C@@](O)(O2)C(=O)C(=O)N2CCCC[C@H]2C(=O)O[C@H]([C@H](C)C[C@@H]2CC[C@@H](O)[C@H](OC)C2)CC(=O)[C@H](C)/C=C(\C)[C@@H](O)[C@@H](OC)C(=O)[C@H](C)C[C@H](C)/C=C/C=C/C=C/1C [Rapamycin]
[1]
  inhibition at 0.001 µM: 50%
ATEGG; Rapamycin Concentration 1 pM
  inhibition at 1 pM: 48%
ATEGG; Rapamycin Concentration 10 pM
  inhibition at 10 pM: 44%
ATEGG; Rapamycin Concentration 100 pM
  inhibition at 0.0001 µM: 49%
ATEGG; Rapamycin Concentration 1 nM
  inhibition at 0.001 µM: 53%
ATEGG; Rapamycin Concentration 10 nM
  inhibition at 0.01 µM: 45%
ATEGG; Rapamycin Concentration 100 nM
  inhibition at 0.1 µM: 60%
ATEGG; Rapamycin Concentration 1 µM
  inhibition at 1 µM: 58%
ATEGG; Rapamycin Concentration 100 fM
  inhibition at 100 fM: 44%
MALN; Rapamycin Concentration 1 pM
  inhibition at 1 pM: 36%
MALN; Rapamycin Concentration 10 pM
  inhibition at 10 pM: 26%
MALN; Rapamycin Concentration 100 pM
  inhibition at 0.0001 µM: 37%
MALN; Rapamycin Concentration 1 nM
  inhibition at 0.001 µM: 43%
MALN; Rapamycin Concentration 10 nM
  inhibition at 0.01 µM: 41%
MALN; Rapamycin Concentration 100 nM
  inhibition at 0.1 µM: 54%
MALN; Rapamycin Concentration 1 µM
  inhibition at 1 µM: 55%
MALN; Rapamycin Concentration 100 fM
  inhibition at 100 fM: 36%
31008; Rapamycin Concentration 1 pM
  inhibition at 1 pM: 30%
31008; Rapamycin Concentration 10 pM
  inhibition at 10 pM: 31%
31008; Rapamycin Concentration 100 pM
  inhibition at 0.0001 µM: 45%
31008; Rapamycin Concentration 1 nM
  inhibition at 0.001 µM: 54%
31008; Rapamycin Concentration 10 nM
  inhibition at 0.01 µM: 58%
31008; Rapamycin Concentration 100 nM
  inhibition at 0.1 µM: 68%
31008; Rapamycin Concentration 1 µM
  inhibition at 1 µM: 69%
31008; Rapamycin Concentration 100 fM
  inhibition at 100 fM: 29%
BL; Rapamycin Concentration 1 pM
  inhibition at 1 pM: 56%
BL; Rapamycin Concentration 10 pM
  inhibition at 10 pM: 55%
BL; Rapamycin Concentration 100 pM
  inhibition at 0.0001 µM: 65%
BL; Rapamycin Concentration 1 nM
  inhibition at 0.001 µM: 73%
BL; Rapamycin Concentration 10 nM
  inhibition at 0.01 µM: 76%
BL; Rapamycin Concentration 100 nM
  inhibition at 0.1 µM: 79%
BL; Rapamycin Concentration 1 µM
  inhibition at 1 µM: 80%
BL; Rapamycin Concentration 100 fM
  inhibition at 100 fM: 51%
31016; Rapamycin Concentration 1 pM
  inhibition at 1 pM: 50%
31016; Rapamycin Concentration 10 pM
  inhibition at 10 pM: 47%
31016; Rapamycin Concentration 100 pM
  inhibition at 0.0001 µM: 49%
31016; Rapamycin Concentration 1 nM
  inhibition at 0.001 µM: 48%
31016; Rapamycin Concentration 10 nM
  inhibition at 0.01 µM: 49%
31016; Rapamycin Concentration 100 nM
  inhibition at 0.1 µM: 56%
31016; Rapamycin Concentration 1 µM
  inhibition at 1 µM: 59%
